Read-outs that look alike come from different tables or passages of the source.
What was measured:
Puccinia triticina = experiment: Fungicidal activity: Wheat Brown Rust (PUCCRT); format: in vivo; details: for pest or weed control at 121.5 g/ha: Low Volume (121.5 g/H); for pest or weed control at 100 µg/mL: High Volume (100 ppm)
Description: (§1) Technical grades of materials were dissolved in acetone, which were then mixed with nine volumes of water containing 110 ppm Triton X-100. The fungicide solutions were applied onto wheat seedlings using an automated booth sprayer to run-off. All sprayed plants were allowed to air dry prior to further handling. All fungicides were evaluated using the aforementioned method for their activity vs. all target diseases, unless stated otherwise. Wheat leaf blotch and brown rust activity were also evaluated using track spray applications, in which case the fungicides were formulated as EC formulations, containing 0.1% Trycol 5941 in the spray solutions. Wheat plants (variety Yuma) were grown from seed in a greenhouse in 50% mineral soil/50% soil-less Metro mix until the first leaf was fully emerged, with 7-10 seedlings per pot. These plants were inoculated with an aqueous spore suspension of Septoria tritici either prior to or after fungicide treatments. After inoculation the plants were kept in 100% relative humidity (one day in a dark dew chamber followed by two to three days in a lighted dew chamber at 20° C.) to permit spores to germinate and infect the leaf. The plants were then transferred to a greenhouse set at 20° C. for disease to develop. When disease symptoms were fully expressed on the 1st leaves of untreated plants, infection levels were assessed on a scale of 0 to 100 percent disease severity. Percent disease control was calculated using the ratio of disease severity on treated plants relative to untreated plants. Evaluation of Fungicidal Activity: Wheat Brown Rust (Puccinia triticina; Synonym: Puccinia recondite f. Sp. Tritici; Bayer Code PUCCRT) Wheat plants (variety Yuma) were grown from seed in a greenhouse in 50% mineral soil/50% soil-less Metro mix until the first leaf was fully emerged, with 7-10 seedlings per pot. These plants were inoculated with an aqueous spore suspension of Puccinia triticina either prior to or after fungicide treatments. After inoculation the plants were kept in a dark dew room at 22° C. with 100% relative humidity overnight to permit spores to germinate and infect the leaf. The plants were then transferred to a greenhouse set at 24° C. for disease to develop. Fungicide formulation, application and disease assessment followed the procedures as described in the Example A.

[1] = test system: Mycosphaerella graminicola; Anamorph: Septoria tritici; experiment: Fungicidal activity: Leaf Blotch of Wheat (SEPTTR); format: in vivo; details: Zymoseptoria tritici, wheat leaf blotch; for pest or weed control at 121.5 g/ha: Low Volume (121.5 g/H); for pest or weed control at 100 µg/mL: High Volume (100 ppm)
Description: as §1, with “Evaluation of Fungicidal Activity: Leaf Blotch of Wheat (Mycosphaerella graminicola; Anamorph: Septoria tritici; Bayer Code […]) Technical” for “Technical”, “plants.” for “plants. Evaluation of Fungicidal Activity: Wheat Brown Rust (Puccinia triticina; Synonym: Puccinia recondite f. Sp. Tritici; Bayer Code PUCCRT) Wheat plants (variety Yuma) were grown from seed in a greenhouse in 50% mineral soil/50% soil-less Metro mix until the first leaf was fully emerged, with 7-10 seedlings per pot. These plants were inoculated with an aqueous spore suspension of Puccinia triticina either prior to or after fungicide treatments. After inoculation the plants were kept in a dark dew room at 22° C. with 100% relative humidity overnight to permit spores to germinate and infect the leaf. The plants were then transferred to a greenhouse set at 24° C. for disease to develop. Fungicide formulation, application and disease assessment followed the procedures as described in the Example A.”

[2] = 24 h, 1 Day Protectant, read-out: PUCCRT 1 DP disease control
[3] = 72 h, 3 Day Curative, read-out: PUCCRT 3 DC disease control
[4] = 24 h, 1 Day Protectant, read-out: SEPTTR 1 DP disease control
[5] = 72 h, 3 Day Curative, read-out: SEPTTR 3 DC disease control

SMILES | pest or weed control at 121.5 g/ha (Puccinia triticina; [2]) | pest or weed control at 121.5 g/ha (Puccinia triticina; [3]) | pest or weed control at 121.5 g/ha [1, 4] | pest or weed control at 121.5 g/ha [1, 5] | pest or weed control at 100 µg/mL (Puccinia triticina; [2]) | pest or weed control at 100 µg/mL (Puccinia triticina; [3]) | pest or weed control at 100 µg/mL [1, 4] | pest or weed control at 100 µg/mL [1, 5]
COc1ccnc(C(=O)N[C@H]2COC[C@H](Cc3ccccc3)[C@@H](Cc3ccc(F)cc3)[C@H](C)OC2=O)c1OCOC(C)=O [compound 61] | > 70% | > 70% | > 70% | > 70% | – | – | – | –
COc1ccnc(C(=O)N[C@H]2COC[C@H](CCC(C)C)[C@@H](CCc3ccccc3)[C@H](C)OC2=O)c1OCOC(=O)C(C)C [compound 35] | > 70% | > 70% | > 70% | > 70% | – | – | – | –
CCC[C@H]1COC[C@H](NC(=O)c2nccc(OC)c2OCOC(=O)C(C)C)C(=O)O[C@@H](C)[C@@H]1Cc1ccccc1 [compound 24] | > 70% | > 70% | > 70% | > 70% | – | – | – | –
COc1ccnc(C(=O)N[C@H]2COC[C@H](CCCc3ccccc3)[C@@H](Cc3ccccc3)[C@H](C)OC2=O)c1OC(C)=O [compound 41] | > 70% | > 70% | > 70% | > 70% | – | – | – | –
COc1ccnc(C(=O)N[C@H]2COC[C@H](Cc3ccccc3)[C@@H](CC(C)C)[C@H](C)OC2=O)c1OCOC(C)=O [compound 19] | > 70% | > 70% | > 70% | > 70% | – | – | – | –
COc1ccnc(C(=O)N[C@H]2COC[C@H](Cc3ccccc3)[C@@H](CCc3ccccc3)[C@H](C)OC2=O)c1OCOC(=O)C(C)C [compound 31] | > 70% | > 70% | > 70% | > 70% | – | – | – | –
COc1ccnc(C(=O)N[C@H]2COC[C@H](CC3CCCC3)[C@@H](CC3CCCC3)[C@H](C)OC2=O)c1O [compound 127] | – | – | – | – | > 70% | > 70% | > 70% | > 70%
COc1ccnc(C(=O)N[C@H]2COC[C@H](CCC(C)C)[C@@H](C3CCCC3)[C@H](C)OC2=O)c1OCOC(=O)C(C)C [compound 94, ((2-(((3S,7R,8R,9S)-8-cyclopentyl-7-isopentyl-9-methyl-2-oxo-1,5-dioxonan-3-yl)carbamoyl)-4-methoxypyridin-3-yl)oxy)methyl isobutyrate] | > 70% | < 70% | > 70% | > 70% | – | – | – | –
COc1ccnc(C(=O)N[C@H]2COC[C@H](Cc3ccc(Cl)cc3)[C@@H](CC(C)C)[C@H](C)OC2=O)c1O [compound 145] | – | – | – | – | > 70% | > 70% | > 70% | > 70%
COc1ccnc(C(=O)N[C@H]2COC[C@H](Cc3ccccc3)[C@@H](Cc3ccc(OC(F)(F)F)cc3)[C@H](C)OC2=O)c1OCOC(=O)C(C)C [compound 48] | > 70% | < 70% | > 70% | > 70% | – | – | – | –
CCOCC(=O)OCOc1c(OC)ccnc1C(=O)N[C@H]1COC[C@H](CCCc2ccccc2)[C@@H](Cc2ccc(OC(F)(F)F)cc2)[C@H](C)OC1=O [compound 77] | < 70% | < 70% | < 70% | < 70% | – | – | – | –
COc1ccnc(C(=O)N[C@H]2COC[C@H](CCCc3ccccc3)[C@@H](CC(C)C)[C@H](C)OC2=O)c1O [compound 144] | – | – | – | – | > 70% | > 70% | > 70% | > 70%
CCC[C@H]1COC[C@H](NC(=O)c2nccc(OC)c2OCOC(=O)C(C)C)C(=O)O[C@@H](C)[C@@H]1c1ccccc1 [compound 99] | > 70% | > 70% | > 70% | > 70% | – | – | – | –
COc1ccnc(C(=O)N[C@H]2COC[C@H](Cc3ccccc3)[C@@H](CCc3ccccc3)[C@H](C)OC2=O)c1OCOC(C)=O [compound 30] | > 70% | > 70% | > 70% | > 70% | – | – | – | –
COc1ccnc(C(=O)N[C@H]2COC[C@H](Cc3ccccc3)[C@@H](CC(C)C)[C@H](C)OC2=O)c1OC(C)=O [compound 18] | > 70% | < 70% | > 70% | > 70% | – | – | – | –
COc1ccnc(C(=O)N[C@H]2COC[C@H](Cc3ccc(Cl)cc3)[C@@H](CC(C)C)[C@H](C)OC2=O)c1OCOC(C)=O [compound 73] | > 70% | < 70% | > 70% | > 70% | – | – | – | –
CCC[C@H]1COC[C@H](NC(=O)c2nccc(OC)c2O)C(=O)O[C@@H](C)[C@@H]1CC(C)C [compound 142] | – | – | – | – | < 70% | < 70% | < 70% | < 70%
CCC[C@H]1COC[C@H](NC(=O)c2nccc(OC)c2O)C(=O)O[C@@H](C)[C@@H]1Cc1ccccc1 [compound 126] | – | – | – | – | > 70% | > 70% | > 70% | > 70%
COc1ccnc(C(=O)N[C@H]2COC[C@H](Cc3ccc(C(F)(F)F)cc3)[C@@H](Cc3ccccc3)[C@H](C)OC2=O)c1OC(C)=O [compound 55] | > 70% | > 70% | > 70% | > 70% | – | – | – | –
COc1ccnc(C(=O)N[C@H]2COC[C@H](CCC(C)C)[C@@H](CCC(C)C)[C@H](C)OC2=O)c1OCOC(C)=O [compound 8] | – | – | – | – | > 70% | > 70% | > 70% | > 70%
CCC[C@H]1COC[C@H](NC(=O)c2nccc(OC)c2OC(C)=O)C(=O)O[C@@H](C)[C@@H]1Cc1ccccc1 [compound 22] | > 70% | > 70% | > 70% | > 70% | – | – | – | –
COc1ccnc(C(=O)N[C@H]2COC[C@H](CC3CCCC3)[C@@H](CC3CCCC3)[C@H](C)OC2=O)c1OCOC(C)=O [compound 26] | > 70% | > 70% | > 70% | > 70% | – | – | – | –
CCOCC(=O)OCOc1c(OC)ccnc1C(=O)N[C@H]1COC[C@H](Cc2ccccc2)[C@@H](Cc2ccccc2)[C@H](C)OC1=O [compound 28] | > 70% | > 70% | > 70% | > 70% | – | – | – | –
COc1ccnc(C(=O)N[C@H]2COC[C@H](Cc3ccccc3)[C@@H](CCC(C)C)[C@H](C)OC2=O)c1OCOC(=O)C(C)C [compound 82] | < 70% | < 70% | < 70% | < 70% | – | – | – | –
